One may read the IC50 as the concentration that inhibits the measured activity by half.

Results on 25 compounds are retold here after patent US10865191B2, “Heterocyclic compounds useful as modulators of TNF alpha” (BRISTOL-MYERS SQUIBB COMPANY, priority 2015, dated 2020).

Chain of TNFα (P01375 77-233 limits assumed): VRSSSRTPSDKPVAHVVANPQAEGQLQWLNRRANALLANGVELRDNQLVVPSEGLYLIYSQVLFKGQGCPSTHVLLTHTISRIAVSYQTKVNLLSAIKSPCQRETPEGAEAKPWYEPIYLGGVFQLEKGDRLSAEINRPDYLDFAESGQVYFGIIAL

In this experiment the target is TNFα (Homo sapiens, UniProt P01375). As to the kind of experiment: TNF induced HEK-Blue assay (NF-kB-driven secreted alkaline phosphatase reporter). Format: cell-based. To be noted: TNFα 0.5 ng/mL, HEK-Blue-CD40L cells, 18 h; read-out: TNF induced HEK-Blue assay IC50 value. The protocol:
TNF or CD40L-Induced HEK-Blue Assay
Test compounds serially diluted in DMSO were plated in an assay plate (LABCYTE, Cat. # LP-0200) at final concentrations ranging from 0.004 μM to 25 μM. TNFα (final concentration 0.5 ng/mL) or CD40L (final concentration 30 ng/mL) in assay buffer [DMEM, 4.5 g/l glucose (Gibco, Cat. 21063-029), 10% FBS (Sigma, F4135), 1% Penicillin-Streptomycin (Gibco, Cat. 15140-122), 1% Anti-Anti (Gibco, Cat. 15240-112) and 2 mM L-glutamine (Gibco, Cat. 25030-081)] was then added to the assay plate. After a 30 minute pre-incubation at 37° C. and 5% CO2, HEK-Blue™-CD40L cells (INVIVOGEN, Cat. Code hkb-cd40) containing a NF-kB-driven secreted alkaline phosphatase reporter gene were seeded into the assay plate at a density of 20,000 cells per well. This plate was then incubated for 18 h at 37° C. and 5% CO2. Secreted alkaline phosphatase expression was measured using QUANTI-Blue™ (INVIVOGEN, Cat. Code rep-qb1) according to manufacturer's specifications and the assay plate was read on a PerkinElmer Envision at 620 nm.
Inhibition data for the test compound over a range of concentrations was plotted as percentage inhibition of the test compound (100%=maximum inhibition). IC50 values were determined after correcting for background [(sample read-mean of low control)/(mean of high control-mean of low control)] where by the low control is DMSO without stimulation and high control is DMSO with stimulation. The IC50 is defined as the concentration of test compound which produces 50% inhibition and was quantified using the 4 parameter logistic equation to fit the data.
Take `CC(Nc1c(Cl)cnc2ccc(-c3cnc(C(C)(C)O)nc3)cc12)[C@H]1CCCN(C(=O)OC(C)(C)C)C1` (mixture of isomers) [Example 60, (S)-tert-butyl 3-(1-((3-chloro-6-(2-(2-hydroxypropan-2-yl)pyrimidin-5-yl)quinolin-4-yl)amino)ethyl)piperidine-1-carboxylate]: the IC50 is 1000 to 10000 nM. Under `CC(Nc1c(Cl)cnc2ccc(-c3cnc(C(C)(C)O)nc3)cc12)[C@@H]1CCCN(C(=O)OC(C)(C)C)C1` (mixture of isomers) [Example 61, tert-butyl (R)-3-((R)-1-((3-chloro-6-(2-(2-hydroxypropan-2-yl)pyrimidin-5-yl)quinolin-4-yl)amino)ethyl)piperidine-1-carboxylate] stands 1000 to 10000 nM; under `O=C(O)CC1CN(c2ncc(-c3ccc4ncc(Cl)c(N[C@@H](c5ccccc5F)C(F)F)c4c3)cn2)CCN1` (mixture of isomers) [Example 77, 2-(4-(5-(3-chloro-4-(((S)-2,2-difluoro-1-(2-fluorophenyl)ethyl)amino)quinolin-6-yl)pyrimidin-2-yl)piperazin-2-yl) acetic acid], < 1000 nM; under `C[C@@H](Nc1c(Cl)cnc2ccc(-c3cnc(N4CCN(C5CCNC5=O)CC4)nc3)cc12)c1ccccc1F` (mixture of isomers) [Example 112, 3-(4-(5-(3-chloro-4-(((R)-1-(2-fluorophenyl)ethyl)amino)quinolin-6-yl)pyrimidin-2-yl)piperazin-1-yl)pyrrolidin-2-one], < 1000 nM. For the compound `C[C@@H](Nc1c(Cl)cnc2ccc(-c3ccc(C(N)CC(=O)O)cc3)cc12)c1ccccc1F` (mixture of isomers) [Example 115, 3-amino-3-(4-(3-chloro-4-(((R)-1-(2-fluorophenyl)ethyl)amino)quinolin-6-yl)phenyl)propanoic acid], the IC50 lay in the range of 1000 to 10000 nM.

For `C[C@@H](Nc1c(Cl)cnc2ccc(-c3ccc(CC(N)C(=O)O)cc3)cc12)c1ccccc1F` (mixture of isomers) [Example 116, 2-amino-3-(4-(3-chloro-4-(((R)-1-(2-fluorophenyl)ethyl)amino)quinolin-6-yl)phenyl)propanoic acid], the IC50 was 1000 to 10000 nM. Under `C[C@@H](Nc1c(Cl)cnc2ccc(-c3ccc(C4(N)CC(O)C4)cc3)cc12)c1ccccc1F` (mixture of isomers) [Example 119, (R)-3-amino-3-(4-(3-chloro-4-((1-(2-fluorophenyl)ethyl)amino)quinolin-6-yl)phenyl)cyclobutan-1-ol] stands < 1000 nM. For `CC(C)(O)c1ncc(-c2cc3c(N[C@H]4C[C@@H]4c4ccccc4)c(Cl)cnc3cc2F)cn1` (mixture of isomers) [Example 271, 2-(5-(3-chloro-7-fluoro-4-(((1S,2R)-2-phenylcyclopropyl)amino)quinolin-6-yl)pyrimidin-2-yl)propan-2-ol] the value was 1000 to 10000 nM; for `COC(=O)C1CCN(c2ncc(-c3cc4c(N[C@H](C)c5ccccc5F)c(Cl)cnc4cc3F)cn2)C1` (mixture of isomers) [Example 281, methyl 1-(5-(3-chloro-7-fluoro-4-(((R)-1-(2-fluorophenyl)ethyl)amino)quinolin-6-yl)pyrimidin-2-yl)pyrrolidine-3-carboxylate], < 1000 nM; for `C[C@@H](Nc1c(Cl)cnc2cc(F)c(-c3cnc(N4CCC(C(=O)O)C4)nc3)cc12)c1ccccc1F` (mixture of isomers) [Example 282, 1-(5-(3-chloro-7-fluoro-4-(((R)-1-(2-fluorophenyl)ethyl)amino)quinolin-6-yl)pyrimidin-2-yl)pyrrolidine-3-carboxylic acid], 1000 to 10000 nM. For `C[C@@H](Nc1c(Cl)cnc2cc(F)c(-c3cnc(N4CCC(C(C)(C)O)C4)nc3)cc12)c1ccccc1F` (mixture of isomers) [Example 283, 2-(1-(5-(3-chloro-7-fluoro-4-(((R)-1-(2-fluorophenyl)ethyl)amino)quinolin-6-yl)pyrimidin-2-yl)pyrrolidin-3-yl)propan-2-ol] the value was < 1000 nM; for `Cc1nc2ccc(-c3cnc(C(C)(C)O)nc3)cc2c(N[C@H](C)c2cc(C(O)CO)ccc2F)c1Cl` (mixture of isomers) [Example 397, 1-(3-((R)-1-((3-chloro-6-(2-(2-hydroxypropan-2-yl)pyrimidin-5-yl)-2-methylquinolin-4-yl)amino)ethyl)-4-fluorophenyl)ethane-1,2-diol], < 1000 nM; for `C[C@@H](Nc1c(Cl)cnc2ccc(-c3cnc(C(C)(C)O)nc3)cc12)c1cc(C(O)CO)ccc1F` (mixture of isomers) [Example 398, 1-(3-((R)-1-((3-chloro-6-(2-(2-hydroxypropan-2-yl)pyrimidin-5-yl)quinolin-4-yl)amino)ethyl)-4-fluorophenyl)ethane-1,2-diol], < 1000 nM. With `C[C@@H](Nc1c(Cl)cnc2ccc(-c3cnc(C(C)(C)O)nc3)cc12)c1cc(CC(O)CO)ccc1F` (mixture of isomers) [Example 399, 3-(3-((R)-1-((3-chloro-6-(2-(2-hydroxypropan-2-yl)pyrimidin-5-yl)quinolin-4-yl)amino)ethyl)-4-fluorophenyl)propane-1,2-diol], the IC50 was < 1000 nM.

Take `Cc1nc2ccc(-c3cnc(C(C)(C)O)nc3)cc2c(N[C@@H](c2cc(C(O)CO)ccc2F)C(F)F)c1Cl` (mixture of isomers) [Example 402, 1-(3-((S)-1-((3-chloro-6-(2-(2-hydroxypropan-2-yl)pyrimidin-5-yl)-2-methylquinolin-4-yl)amino)-2,2-difluoroethyl)-4-fluorophenyl)ethane-1,2-diol]: the IC50 was < 1000 nM. Under `Cc1nc2ccc(-c3cnc(C(C)(C)O)nc3)cc2c(N[C@H](C)c2cc(C(C)(O)CO)ccc2F)c1Cl` (mixture of isomers) [Example 403, 2-(3-((R)-1-((3-chloro-6-(2-(2-hydroxypropan-2-yl)pyrimidin-5-yl)-2-methylquinolin-4-yl)amino)ethyl)-4-fluorophenyl)propane-1,2-diol] stands < 1000 nM; under `Cc1nc2ccc(-c3cnc(C(C)(C)O)nc3)cc2c(N[C@H](C)c2cc(C(C)O)ccc2F)c1Cl` (mixture of isomers) [Example 433, 2-(5-(3-chloro-4-(((1R)-1-(2-fluoro-5-(1-hydroxyethyl)phenyl)ethyl)amino)-2-methylquinolin-6-yl)pyrimidin-2-yl)propan-2-ol], < 1000 nM. Under `CC(Nc1c(Cl)cnc2cc(F)c(-c3ccc(C(O)CO)cc3)cc12)c1cc(C#N)ccc1F` (mixture of isomers) [Example 599, 3-(1-((3-chloro-6-(4-(1,2-dihydroxyethyl)phenyl)-7-fluoroquinolin-4-yl)amino)ethyl)-4-fluorobenzonitrile] stands < 1000 nM; under `CC(C)(O)c1ncc(-c2ccc3ncc(Cl)c(NC(CF)c4ccccc4F)c3c2)cn1` (racemic) [Example 10, 2-(5-(3-chloro-4-((2-fluoro-1-(2-fluorophenyl)ethyl)amino)quinolin-6-yl)pyrimidin-2-yl)propan-2-ol], < 1000 nM; under `CN(C)CC(Nc1c(Cl)cnc2ccc(-c3cnc(C(C)(C)O)nc3)cc12)c1ccccc1F` (racemic) [Example 12, 2-(5-(3-chloro-4-((2-(dimethylamino)-1-(2-fluorophenyl)ethyl)amino)quinolin-6-yl)pyrimidin-2-yl) propan-2-ol], 1000 to 10000 nM. Regarding `CC(Nc1c(Cl)cnc2c(Cl)cc(-c3cnc(N4CCNC(=O)C4)nc3)cc12)c1ccccc1F` (racemic) [Example 18, 4-(5-(3,8-dichloro-4-((1-(2-fluorophenyl)ethyl)amino)quinolin-6-yl)pyrimidin-2-yl)piperazin-2-one], the IC50 lay within 1000 to 10000 nM. On to `CNc1ncc(-c2cc(Cl)c3ncc(Cl)c(NC(C)c4ccccc4F)c3c2)cn1` (racemic) [Example 19, 3,8-dichloro-N-(1-(2-fluorophenyl)ethyl)-6-(2-(methylamino)pyrimidin-5-yl)quinolin-4-amine], for which the IC50 fell in the range of 10000 to 25000 nM. Under `CC(Nc1c(Cl)cnc2c(Cl)cc(-c3cnn(C)c3)cc12)c1ccccc1F` (racemic) [Example 20, 3,8-dichloro-N-(1-(2-fluorophenyl)ethyl)-6-(1-methyl-1H-pyrazol-4-yl)quinolin-4-amine] stands 10000 to 25000 nM. For `CC(Nc1c(Cl)cnc2c(Cl)cc(-c3ccc(C(C)(C)O)cc3)cc12)c1ccccc1F` (racemic) [Example 21, 2-(4-(3,8-dichloro-4-((1-(2-fluorophenyl)ethyl)amino)quinolin-6-yl)phenyl)propan-2-ol] the value was 1000 to 10000 nM.

`CNS(=O)(=O)c1ccc(-c2cc(Cl)c3ncc(Cl)c(NC(C)c4ccccc4F)c3c2)cc1` (racemic) [Example 22, 4-(3,8-dichloro-4-((1-(2-fluorophenyl)ethyl)amino)quinolin-6-yl)-N-methylbenzenesulfonamide]: the IC50 is 10000 to 25000 nM.
